# Measurements from ChEMBL document CHEMBL1201862, “PubChem BioAssay data set” (2004).
#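 Following 48 hours of exposure in 96-well plates, responses at five concentrations were used to interpolate endpoints linearly. The concentration for 50% growth inhibition is given as GI50.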 Calls of active or inactive are those of the source. Rule as the data show it: active = GI50 up to about 1.1 µM and inactive = higher.
# Columns and labels:
# Experiment in all cases: DTP human tumour cell line panel, 48 h
# BT-549 = tested on: BT-549
# SK-MEL-2 = tested on: SK-MEL-2
# SK-OV-3 = tested on: SK-OV-3
# SK-MEL-5 = tested on: SK-MEL-5
# CAKI-1 = tested on: CAKI-1
# SF-268 = tested on: SF-268
# A549 = tested on: A549
# SNB-75 = tested on: SNB-75
# SR = tested on: SR
# OVCAR-4 = tested on: OVCAR-4
# SK-MEL-28 = tested on: SK-MEL-28
# NCI/ADR-RES = tested on: NCI/ADR-RES
# UACC-62 = tested on: UACC-62
# LOX IMVI = tested on: LOX IMVI
# MDA-MB-231 = tested on: MDA-MB-231
# HCC 2998 = tested on: HCC 2998
# A498 = tested on: A498
# HOP-62 = tested on: HOP-62
# MDA-N = tested on: MDA-N
# OVCAR-5 = tested on: OVCAR-5
Compound,GI50 (BT-549),GI50 (SK-MEL-2),GI50 (SK-OV-3),GI50 (SK-MEL-5),GI50 (CAKI-1),GI50 (SF-268),GI50 (A549),GI50 (SNB-75),GI50 (SR),GI50 (OVCAR-4),GI50 (SK-MEL-28),GI50 (NCI/ADR-RES),GI50 (UACC-62),GI50 (LOX IMVI),GI50 (MDA-MB-231),GI50 (HCC 2998),GI50 (A498),GI50 (HOP-62),GI50 (MDA-N),GI50 (OVCAR-5)
CCn1cc(C(=O)O)c(=O)c2cc(F)c(N3CCN(CN4C(=O)/C(=N\c5ncc(Cc6cc(OC)c(OC)c(OC)c6)c(N)n5)c5cc(Cl)ccc54)CC3)cc21,> 100 µM (inactive),> 100 µM (inactive),> 100 µM (inactive),> 100 µM (inactive),> 100 µM (inactive),> 100 µM (inactive),> 100 µM (inactive),> 100 µM (inactive),41.4 µM (inactive),> 100 µM (inactive),> 100 µM (inactive),> 100 µM (inactive),> 100 µM (inactive),> 100 µM (inactive),> 100 µM (inactive),42.2 µM (inactive),> 100 µM (inactive),> 100 µM (inactive),45.5 µM (inactive),> 100 µM (inactive)
CN(C)c1ncnc2c1ncn2CCn1cnc2c(N(C)C)ncnc21,> 100 µM (inactive),> 100 µM (inactive),> 100 µM (inactive),> 100 µM (inactive),> 100 µM (inactive),> 100 µM (inactive),> 100 µM (inactive),> 100 µM (inactive),2.28 µM (inactive),> 100 µM (inactive),> 100 µM (inactive),> 100 µM (inactive),> 100 µM (inactive),> 100 µM (inactive),> 100 µM (inactive),> 100 µM (inactive),> 100 µM (inactive),> 100 µM (inactive),> 100 µM (inactive),> 100 µM (inactive)
CSc1cc(N)ccc1/N=N/c1ccc(S(N)(=O)=O)cc1,6.4 µM (inactive),24.2 µM (inactive),35.8 µM (inactive),15.3 µM (inactive),36.1 µM (inactive),37.8 µM (inactive),22.1 µM (inactive),15.5 µM (inactive),34.6 µM (inactive),27.5 µM (inactive),25.5 µM (inactive),29.6 µM (inactive),15.9 µM (inactive),29.6 µM (inactive),16.1 µM (inactive),53.6 µM (inactive),48 µM (inactive),29.4 µM (inactive),61.7 µM (inactive),45 µM (inactive)
COC(=O)c1ccccc1CC1Cc2cc3c(cc2C1=O)CCC3 (stereo not given),10.8 µM (inactive),7.87 µM (inactive),18.5 µM (inactive),7.83 µM (inactive),11.1 µM (inactive),29.6 µM (inactive),20.3 µM (inactive),11.4 µM (inactive),4.06 µM (inactive),19.2 µM (inactive),17.8 µM (inactive),3.05 µM (inactive),9.77 µM (inactive),7.31 µM (inactive),8.85 µM (inactive),> 41.1 µM (inactive),11.7 µM (inactive),17.1 µM (inactive),1.93 µM (inactive),26.5 µM (inactive)
CN(C1=NS(=O)(=O)N=C(N(C)c2ccccc2)O1)c1ccccc1,8.38 µM (inactive),16.4 µM (inactive),40.1 µM (inactive),7.66 µM (inactive),22.1 µM (inactive),24.5 µM (inactive),21.2 µM (inactive),16.7 µM (inactive),7.06 µM (inactive),20.8 µM (inactive),22.8 µM (inactive),21.8 µM (inactive),14.2 µM (inactive),13.3 µM (inactive),17.6 µM (inactive),20.7 µM (inactive),20.5 µM (inactive),22.9 µM (inactive),15 µM (inactive),23.1 µM (inactive)
C=C(Cl)COC(=O)Nc1cccc(Cl)c1,26.7 µM (inactive),22.5 µM (inactive),72.8 µM (inactive),18 µM (inactive),31.9 µM (inactive),40.1 µM (inactive),30.3 µM (inactive),26.4 µM (inactive),51.1 µM (inactive),16.2 µM (inactive),42.1 µM (inactive),29.3 µM (inactive),20.6 µM (inactive),35.6 µM (inactive),40.4 µM (inactive),37.1 µM (inactive),23.4 µM (inactive),38.3 µM (inactive),34.2 µM (inactive),48.2 µM (inactive)
NC(Cc1cccnn1)C(=O)O (stereo not given),> 100 µM (inactive),> 100 µM (inactive),> 100 µM (inactive),> 100 µM (inactive),> 100 µM (inactive),> 100 µM (inactive),> 100 µM (inactive),> 100 µM (inactive),> 100 µM (inactive),> 100 µM (inactive),> 100 µM (inactive),> 100 µM (inactive),> 100 µM (inactive),> 100 µM (inactive),> 100 µM (inactive),> 100 µM (inactive),> 100 µM (inactive),> 100 µM (inactive),> 100 µM (inactive),> 100 µM (inactive)
CN(C(=O)c1ccc(Cl)s1)C(=S)N(C)C(=O)c1ccc(Cl)s1,> 10 µM (inactive),> 10 µM (inactive),> 10 µM (inactive),> 10 µM (inactive),> 10 µM (inactive),> 10 µM (inactive),> 10 µM (inactive),> 10 µM (inactive),> 10 µM (inactive),> 10 µM (inactive),> 10 µM (inactive),> 10 µM (inactive),> 10 µM (inactive),> 10 µM (inactive),> 10 µM (inactive),> 10 µM (inactive),> 10 µM (inactive),> 10 µM (inactive),> 10 µM (inactive),> 10 µM (inactive)
CC(=O)N(O)[C@@H]1CC[C@H](n2cnc3c(N)ncnc32)C1,> 100 µM (inactive),> 100 µM (inactive),> 100 µM (inactive),> 100 µM (inactive),> 100 µM (inactive),> 100 µM (inactive),> 100 µM (inactive),> 100 µM (inactive),> 100 µM (inactive),> 100 µM (inactive),> 100 µM (inactive),> 100 µM (inactive),> 100 µM (inactive),> 100 µM (inactive),> 100 µM (inactive),> 100 µM (inactive),> 100 µM (inactive),> 100 µM (inactive),> 100 µM (inactive),> 100 µM (inactive)
Cc1ccc(C(=O)c2[nH]c(Nc3cc(C)ccn3)c(C(=S)Nc3ccccc3)c2N)cc1,> 100 µM (inactive),> 100 µM (inactive),> 100 µM (inactive),> 100 µM (inactive),> 100 µM (inactive),> 100 µM (inactive),> 100 µM (inactive),> 100 µM (inactive),> 100 µM (inactive),> 100 µM (inactive),> 100 µM (inactive),> 100 µM (inactive),> 100 µM (inactive),> 100 µM (inactive),> 100 µM (inactive),> 100 µM (inactive),> 100 µM (inactive),> 100 µM (inactive),> 100 µM (inactive),> 100 µM (inactive)
Cc1nc2ccc(Cl)cc2c(-n2ccnc2)c1CCn1ccnc1,19.8 µM (inactive),19.2 µM (inactive),31 µM (inactive),20.7 µM (inactive),63.1 µM (inactive),30.2 µM (inactive),34.9 µM (inactive),20 µM (inactive),0.678 µM (active),18.9 µM (inactive),29.9 µM (inactive),2.03 µM (inactive),16.3 µM (inactive),21 µM (inactive),17.8 µM (inactive),49.8 µM (inactive),21.5 µM (inactive),33.3 µM (inactive),25.5 µM (inactive),21.5 µM (inactive)
